{"source": "patent US6767890B1", "about": "“Peptides having anti-cancer and anti-inflammatory activity” (priority 1998, dated 2004)", "key": {"Cyclooxygenase-1": {"molecular_target": "T1, Cyclooxygenase-1 (Ovis aries, UniProt P05979)", "T1 construct": "ram seminal; from tissue; host or cells: ram seminal vesicle", "T1 sequence (P05979 25-600)": "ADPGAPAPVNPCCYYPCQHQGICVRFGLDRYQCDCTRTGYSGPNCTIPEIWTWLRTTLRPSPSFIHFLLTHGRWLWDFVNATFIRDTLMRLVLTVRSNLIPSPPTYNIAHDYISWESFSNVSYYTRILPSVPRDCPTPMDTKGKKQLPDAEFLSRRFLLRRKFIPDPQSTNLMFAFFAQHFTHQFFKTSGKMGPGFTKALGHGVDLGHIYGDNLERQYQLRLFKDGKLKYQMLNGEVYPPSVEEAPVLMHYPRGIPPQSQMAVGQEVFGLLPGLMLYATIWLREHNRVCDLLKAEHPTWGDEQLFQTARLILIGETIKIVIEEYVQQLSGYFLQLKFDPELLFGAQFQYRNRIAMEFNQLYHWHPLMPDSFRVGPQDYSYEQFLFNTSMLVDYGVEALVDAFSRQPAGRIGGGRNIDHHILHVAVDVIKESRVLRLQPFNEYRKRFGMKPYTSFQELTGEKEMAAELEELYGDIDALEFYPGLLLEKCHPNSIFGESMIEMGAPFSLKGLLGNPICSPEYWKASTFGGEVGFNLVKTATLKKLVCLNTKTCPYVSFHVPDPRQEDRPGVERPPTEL", "test": "Cyclooxygenase-1 enzyme assay", "type": "biochemical, ram", "details": "300.0 μM; average of duplicate; negative = stimulation", "procedure": "(§1) The peptide was further screened in vitro in a variety of enzyme and biochemical assays. Methods employed were adapted from the scientific literature to maximize reliability and reproducibility.\n(§2) Unless otherwise indicated, the peptide was tested in duplicate at the concentrations indicated for each assay. Results presented in Table 10, “Results,” are the average of duplicate determinations, unless otherwise noted.\n(§3) Enzyme assays were performed under conditions described in Table 8, “Experimental Conditions.”. The commercial suppliers and catalog numbers of substrates employed in this study are given in Table 7, “Material Sources.” The name, commercial source, and catalog numbers of concurrent reference compounds (controls) employed in this study are given in Table 9, “Reference Compound Data.” The reaction catalyzed by each enzyme is listed in Table 8, “Experimental Conditions.”\n(§4) Biochemical assay results are presented in Table 10, as the percent inhibition of specific binding or activity, and unless noted are the average of duplicate tubes tested at each concentration."}, "PLA2, Pancreatic": {"molecular_target": "T2, PLA2, Pancreatic (Sus scrofa, UniProt P00592)", "T2 construct": "porcine; from tissue; host or cells: porcine pancreas", "T2 sequence (P00592 23-146)": "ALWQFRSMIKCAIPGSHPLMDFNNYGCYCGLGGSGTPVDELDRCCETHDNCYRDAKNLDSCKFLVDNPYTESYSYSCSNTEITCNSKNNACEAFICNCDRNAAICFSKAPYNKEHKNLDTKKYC", "test": "PLA2, Pancreatic enzyme assay", "type": "biochemical, porcine", "details": "300.0 μM; average of duplicate; negative = stimulation", "procedure": "as §1, with “reproducibility. The primary literature reference for each assay is listed in Table 11 opposite the results for each assay.” for “reproducibility.”\n(§5) Results presented in Table 10, “Results,” are the average of duplicate determinations, unless otherwise noted.\nReference compounds were tested concurrently at 5 concentrations as an integral part of each assay to ensure the validity of the results obtained.\nas §3, §4"}, "Protein Kinase C - γ": {"molecular_target": "Protein Kinase C - γ (Oryctolagus cuniculus, UniProt P10829)", "test": "Protein Kinase C - γ enzyme assay", "type": "biochemical, rabbit", "details": "100.0 μM; average of duplicate; negative = stimulation", "procedure": "as §1, §2, §3, §4"}, "Interleukin-6": {"molecular_target": "T3, Interleukin-6 (Homo sapiens, UniProt P08887)", "T3 construct": "human U266; endogenous in cells; host or cells: U266 cells", "T3 sequence (P08887 20-468)": "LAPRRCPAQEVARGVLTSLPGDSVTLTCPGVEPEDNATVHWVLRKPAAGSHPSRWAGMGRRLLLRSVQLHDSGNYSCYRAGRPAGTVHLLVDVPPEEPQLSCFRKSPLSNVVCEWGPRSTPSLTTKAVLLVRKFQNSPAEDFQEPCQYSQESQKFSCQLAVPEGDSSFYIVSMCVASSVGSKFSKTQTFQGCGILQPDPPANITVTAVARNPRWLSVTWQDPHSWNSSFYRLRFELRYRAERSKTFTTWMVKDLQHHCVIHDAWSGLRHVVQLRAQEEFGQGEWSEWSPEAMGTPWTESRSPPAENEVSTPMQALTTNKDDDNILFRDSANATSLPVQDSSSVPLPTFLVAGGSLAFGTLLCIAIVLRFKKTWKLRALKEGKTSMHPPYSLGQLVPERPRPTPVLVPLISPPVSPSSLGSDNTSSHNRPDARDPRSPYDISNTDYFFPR", "test": "Interleukin-6 radioligand binding", "details": "10.0 μM; specific binding of [125I]Interleukin-6; negative = stimulation", "procedure": "as §1, with “reproducibility. The primary literature reference for each assay is listed in Table 11 opposite the results for each assay.” for “reproducibility.”\nas §5\nReference compounds were tested concurrently at 5 concentrations as an integral part of each assay to ensure the validity of the results obtained. […]\nMaximum total binding and nonspecific binding were determined each time each assay was run. […]\nWhere inhibition constants (Ki) are presented, the Ki values were calculated using the equation of Cheng and Prusoff (Cheng, Y., Prusoff, W. H., Biochem. Pharmacol. […], 1973) using the observed IC50 of the tested compound, the concentration of radioligand employed in the assay, and the historical values for the Kd of the ligand (obtained experimentally). Where presented, the Hill Coefficient (nH), defining the scope of the competitive binding curve, was calculated using GraphPad Prism. […] Where IC50, Ki, and/or Hill Slope data is presented without Standard Error of the Mean (SEM), data are insufficient to be quantitative, and the values presented (Ki, IC50, nH) should be interpreted with caution. […]"}, "PAF-induced mortality": {"test_system": "PAF-induced mortality", "test": "Platelet Activating Factor (PAF) Antagonism", "type": "in vivo, mouse", "details": "Peptide 100 mg/kg, WEB-2086 3 mg/kg", "procedure": "(§6) For in vivo assay, distilled water and saline was used as vehicle in oral and intraperitoneal administration, respectively. Dosing volume was 20 ml/kg for mice or 10 ml/kg for rats.\nGroups of 5 male ICR mice weighing 22±2 gms were employed. At dose of 100 mg/kg test substance dissolved in a vehicle of distilled water were administered orally. The control group received vehicle alone. At 60 minutes after dosing, the animals were injected intravenously PAF-acether ([…] IV, dissolved in 0.25% BSA). One hour later, the survival animals were recorded. The prevention of PAF-induced mortality in 50 percent or more (≧50%) of mice indicated significant activity."}, "[1]": {"test_system": "ovalbumin-induced bronchoconstriction", "test": "Pulmonary, Histamine H3 (ovalbumin-induced bronchoconstriction)", "type": "in vivo, guinea pig", "details": "Peptide PO 10 mg/kg, R-α-methylhistamine IV 30 mg/kg", "procedure": "as §6\nA group of Duncan Hartley derived male or female guinea pigs weighing 250±50 gms were anesthetized with pentobarbital sodium (50 mg/kg IP plus an additional 15 mg/kg IP if required) and succinylcholine chloride (2 mg/animal IP) was subsequently administered to prevent spontaneous respiration. Body temperature was maintained at 37° to 38° C. The trachea was cannulated and the guinea pig ventilated with a Harvard rodent respirator in a closed system. Tracheal pressure (TP) was recorded through a side-arm of the cannula connected to a P23ID Statham transducer. Respiratory rate set at 50 strokes/minute with a stroke volume (approximately 1 ml/100 g) sufficient to produce a baseline tracheal pressure of 6 cm H2O. Mean arterial pressure was monitored from a cannulated carotid artery, and heart rate was obtained from chest electrodes arranged for lead II. The jugular vein was cannulated for IV vehicle or drug administration in a volume of 1 ml/kg. Guinea pigs were sensitized with IP injections of ovalbumin 0.5 μg+Al(OH)3 1 mg (0.5 ml/animal) on days 1, and boosted with same dosage of ovalbumin and Al(OH)3 vaccine on day 8; and the animals were ready to be challenged between days 19 and 23 to get a submaximal ovalbumin (50 μg/kg IV)-induced bronchoconstriction, reflected as an increase in tracheal pressure (cm H2O). […]. Test substances were administered PO (10 mg/kg) at 60 minutes before ovalbumin (50 μg/kg IV) challenge in 3 guinea pigs. Tracheal pressure, blood pressure and heart rate were measured immediately before and after ovalbumin challenge."}}, "note": "Where “and” joins values, the source holds several entries; their conditions need not be identical. Equal entries are not always repeated."}
{"substance": "LEU-PRO-PRO-SER-ARG [Peptide]", "values": [{"measurement": "% Inhibition", "setting": "Cyclooxygenase-1", "result": 2, "unit": "%"}, {"measurement": "% Inhibition", "setting": "PLA2, Pancreatic", "result": "−11", "unit": "%"}, {"measurement": "% Inhibition", "setting": "Protein Kinase C - γ", "result": "−6", "unit": "%"}, {"measurement": "% Inhibition", "setting": "Interleukin-6", "result": 13, "unit": "%"}, {"measurement": "% Protection", "setting": "PAF-induced mortality; PO one hour before PAF-acether 100 μg/kg IV", "result": 0, "unit": "%"}, {"measurement": "No. of Survival", "setting": "PAF-induced mortality; of 5 mice, one hour after PAF-acether 100 μg/kg IV, PO one hour before", "result": 0}, {"measurement": "Inc. of TP X ± SEM", "setting": "[1]; group mean, N=3", "result": "31.5 ± 2.3", "unit": "cm H2O"}, {"measurement": "Inc. of TP Ind.", "setting": "[1]; individual guinea pig, tracheal pressure after ovalbumin 50 μg/kg IV", "result": "27.5 cm H2O and 35.5 cm H2O and 31.5 cm H2O"}, {"measurement": "% INH.", "setting": "[1]; inhibition of induced bronchoconstriction relative to vehicle", "result": "−6.8", "unit": "%"}]}
